Experimental data taken from US6376670B1, “Quinoline-indole antimicrobial agents, uses and compositions related thereto” (Sepracor Inc., priority 1997, dated 2002).
Read-outs that look alike come from different tables or passages of the source.

How the values were obtained:
Assay in all cases: Determination of MIC values (BHI broth, 96 well microtiter plate)
Type in all cases: cell-based
[1] = test system: methicillin-resistant Staphylococcus aureus (MRSA); conditions: Staphylococcus aureus, MRSA, BHI broth, read-out: MIC MRSA
Procedure, shortened: (§1)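 Organisms are grown in BHI at 37° C (about 7% CO2) to a 0.5 McFarland standard, then inoculated at 10^5 to 10^6 cells/mL into BHI holding twofold compound dilutions (final 25 down to 0.39 µg/mL, DMSO-diluted). After overnight incubation, MIC is the lowest concentration lacking growth.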

[2] = test system: vancomycin-resistant Enterococcus spp. (VRE); conditions: Enterococcus, VRE, BHI broth, read-out: MIC VREF
Procedure, shortened: as §1

[3] = test system: Streptococcus pneumoniae; conditions: Streptococcus pneumoniae, BHI broth, read-out: MIC S. pneu
Procedure, shortened: as §1

COc1ccc2[nH]c(C)c(-c3ccc4c([N+](=O)[O-])cccc4n3)c2c1 [Example 386]
MIC ([1]; overnight 37° C.): > 25 µg/mL | MIC ([2]; VREF, overnight 37° C.): > 25 µg/mL | MIC ([3]; S. pneu, overnight 37° C.): > 25 µg/mL

O=[N+]([O-])c1cccc2nc(-c3c[nH]c4ccc(Br)cc34)ccc12 [Example 387]
MIC ([1]; overnight 37° C.): > 25 µg/mL | MIC ([2]; VREF, overnight 37° C.): > 25 µg/mL | MIC ([3]; S. pneu, overnight 37° C.): > 25 µg/mL

O=[N+]([O-])c1cccc2nc(-c3c[nH]c4cc(F)ccc34)ccc12 [Example 388]
MIC ([1]; overnight 37° C.): > 25 µg/mL | MIC ([2]; VREF, overnight 37° C.): > 25 µg/mL | MIC ([3]; S. pneu, overnight 37° C.): > 25 µg/mL

Cn1cc(-c2cc(C(=O)NCc3ccc(CN)cc3)c3cc(C#CCNCCc4ccccc4)ccc3n2)c2cc(Br)ccc21 [Example 389]
MIC ([1]; overnight 37° C.): < 7 µg/mL | MIC ([2]; VREF, overnight 37° C.): < 7 µg/mL | MIC ([3]; S. pneu, overnight 37° C.): < 25 µg/mL

Cn1cc(-c2cc(C(=O)NCc3ccc(CN)cc3)c3cc(C#CCNCCc4ccc(Cl)cc4)ccc3n2)c2cc(Br)ccc21 [Example 390]
MIC ([1]; overnight 37° C.): < 25 µg/mL | MIC ([2]; VREF, overnight 37° C.): < 7 µg/mL | MIC ([3]; S. pneu, overnight 37° C.): < 7 µg/mL

Cn1cc(-c2cc(C(=O)NCc3ccc(CN)cc3)c3cc(C#CCNCC4CCCCC4)ccc3n2)c2cc(Br)ccc21 [Example 391]
MIC ([1]; overnight 37° C.): < 7 µg/mL | MIC ([2]; VREF, overnight 37° C.): < 7 µg/mL | MIC ([3]; S. pneu, overnight 37° C.): < 7 µg/mL

CN(C)CCNCC#Cc1ccc2nc(-c3cn(C)c4ccc(Br)cc34)cc(C(=O)NCc3ccc(CN)cc3)c2c1 [Example 392]
MIC ([1]; overnight 37° C.): < 7 µg/mL | MIC ([2]; VREF, overnight 37° C.): < 7 µg/mL | MIC ([3]; S. pneu, overnight 37° C.): < 7 µg/mL

Cn1cc(-c2cc(C(=O)NCc3ccc(CN)cc3)c3cc(C#CCN4CCCC4)ccc3n2)c2cc(Br)ccc21 [Example 393]
MIC ([1]; overnight 37° C.): < 7 µg/mL | MIC ([2]; VREF, overnight 37° C.): < 25 µg/mL | MIC ([3]; S. pneu, overnight 37° C.): < 25 µg/mL

Cn1cc(-c2cc(C(=O)NCc3ccc(CN)cc3)c3cc(C#CCN4CCc5ccccc5C4)ccc3n2)c2cc(Br)ccc21 [Example 394]
MIC ([1]; overnight 37° C.): > 25 µg/mL | MIC ([2]; VREF, overnight 37° C.): > 25 µg/mL | MIC ([3]; S. pneu, overnight 37° C.): > 25 µg/mL

CN1CCN(CC#Cc2ccc3nc(-c4cn(C)c5ccc(Br)cc45)cc(C(=O)NCc4ccc(CN)cc4)c3c2)CC1 [Example 395]
MIC ([1]; overnight 37° C.): < 7 µg/mL | MIC ([2]; VREF, overnight 37° C.): < 25 µg/mL | MIC ([3]; S. pneu, overnight 37° C.): < 25 µg/mL

Cn1cc(-c2cc(C(=O)NCc3ccc(CN)cc3)c3cc(C#CCN4CC=CC4)ccc3n2)c2cc(Br)ccc21 [Example 396]
MIC ([1]; overnight 37° C.): > 25 µg/mL | MIC ([2]; VREF, overnight 37° C.): > 25 µg/mL | MIC ([3]; S. pneu, overnight 37° C.): > 25 µg/mL

CN(CC#Cc1ccc2nc(-c3cn(C)c4ccc(Br)cc34)cc(C(=O)NCc3ccc(CN)cc3)c2c1)C1CCCCC1 [Example 397]
MIC ([1]; overnight 37° C.): < 7 µg/mL | MIC ([2]; VREF, overnight 37° C.): < 7 µg/mL | MIC ([3]; S. pneu, overnight 37° C.): < 7 µg/mL

CC(C)N(CC#Cc1ccc2nc(-c3cn(C)c4ccc(Br)cc34)cc(C(=O)NCc3ccc(CN)cc3)c2c1)C(C)C [Example 398]
MIC ([1]; overnight 37° C.): < 7 µg/mL | MIC ([2]; VREF, overnight 37° C.): < 7 µg/mL | MIC ([3]; S. pneu, overnight 37° C.): < 7 µg/mL

Cn1cc(-c2cc(C(=O)NCCN)c3cc(C#CCNCCc4ccccc4)ccc3n2)c2cc(Br)ccc21 [Example 399]
MIC ([1]; overnight 37° C.): < 7 µg/mL | MIC ([2]; VREF, overnight 37° C.): < 7 µg/mL | MIC ([3]; S. pneu, overnight 37° C.): < 7 µg/mL

Cn1cc(-c2cc(C(=O)NCCN)c3cc(C#CCNCCc4ccc(Cl)cc4)ccc3n2)c2cc(Br)ccc21 [Example 400]
MIC ([1]; 16 h, 37° C., about 16 hours): < 7 µg/mL | MIC ([2]; 16 h, 37° C., about 16 hours): < 7 µg/mL | MIC ([3]; 37° C., about 16 hours): < 7 µg/mL

Cn1cc(-c2cc(C(=O)NCCN)c3cc(C#CCNCC4CCCCC4)ccc3n2)c2cc(Br)ccc21 [Example 401]
MIC ([1]; 16 h, 37° C., about 16 hours): < 7 µg/mL | MIC ([2]; 16 h, 37° C., about 16 hours): < 7 µg/mL | MIC ([3]; 37° C., about 16 hours): < 7 µg/mL

CN(C)CCNCC#Cc1ccc2nc(-c3cn(C)c4ccc(Br)cc34)cc(C(=O)NCCN)c2c1 [Example 402]
MIC ([1]; 16 h, 37° C., about 16 hours): < 7 µg/mL | MIC ([2]; 16 h, 37° C., about 16 hours): < 7 µg/mL | MIC ([3]; 37° C., about 16 hours): < 7 µg/mL

Cn1cc(-c2cc(C(=O)NCCN)c3cc(C#CCN4CCCC4)ccc3n2)c2cc(Br)ccc21 [Example 403]
MIC ([1]; 16 h, 37° C., about 16 hours): < 7 µg/mL | MIC ([2]; 16 h, 37° C., about 16 hours): < 7 µg/mL | MIC ([3]; 37° C., about 16 hours): < 7 µg/mL

Cn1cc(-c2cc(C(=O)NCCN)c3cc(C#CCN4CCc5ccccc5C4)ccc3n2)c2cc(Br)ccc21 [Example 404]
MIC ([1]; 16 h, 37° C., about 16 hours): < 7 µg/mL | MIC ([2]; 16 h, 37° C., about 16 hours): < 7 µg/mL | MIC ([3]; 37° C., about 16 hours): < 7 µg/mL

CN1CCN(CC#Cc2ccc3nc(-c4cn(C)c5ccc(Br)cc45)cc(C(=O)NCCN)c3c2)CC1 [Example 405]
MIC ([1]; 16 h, 37° C., about 16 hours): < 25 µg/mL | MIC ([2]; 16 h, 37° C., about 16 hours): < 25 µg/mL | MIC ([3]; 37° C., about 16 hours): < 25 µg/mL

Cn1cc(-c2cc(C(=O)NCCN)c3cc(C#CCN4CC=CC4)ccc3n2)c2cc(Br)ccc21 [Example 406]
MIC ([1]; 16 h, 37° C., about 16 hours): < 7 µg/mL | MIC ([2]; 16 h, 37° C., about 16 hours): < 7 µg/mL | MIC ([3]; 37° C., about 16 hours): < 7 µg/mL

CN(CC#Cc1ccc2nc(-c3cn(C)c4ccc(Br)cc34)cc(C(=O)NCCN)c2c1)C1CCCCC1 [Example 407]
MIC ([1]; 16 h, 37° C., about 16 hours): < 7 µg/mL | MIC ([2]; 16 h, 37° C., about 16 hours): < 7 µg/mL | MIC ([3]; 37° C., about 16 hours): < 7 µg/mL

CC(C)N(CC#Cc1ccc2nc(-c3cn(C)c4ccc(Br)cc34)cc(C(=O)NCCN)c2c1)C(C)C [Example 408]
MIC ([1]; 16 h, 37° C., about 16 hours): < 7 µg/mL | MIC ([2]; 16 h, 37° C., about 16 hours): < 7 µg/mL | MIC ([3]; 37° C., about 16 hours): < 7 µg/mL

Cc1cccc2ccc(-c3c[nH]c4ccc(C#N)cc34)nc12 [Example 409]
MIC ([1]; 16 h, 37° C., about 16 hours): > 25 µg/mL | MIC ([2]; 16 h, 37° C., about 16 hours): > 25 µg/mL | MIC ([3]; 37° C., about 16 hours): > 25 µg/mL

Cc1cccc2ccc(-c3c[nH]c4cc(Cl)ccc34)nc12 [Example 410]
MIC ([1]; 16 h, 37° C., about 16 hours): < 25 µg/mL | MIC ([2]; 16 h, 37° C., about 16 hours): > 25 µg/mL | MIC ([3]; 37° C., about 16 hours): < 25 µg/mL

Cc1ccc2[nH]cc(-c3ccc4cccc(C)c4n3)c2c1 [Example 411]
MIC ([1]; 16 h, 37° C., about 16 hours): > 25 µg/mL | MIC ([2]; 16 h, 37° C., about 16 hours): > 25 µg/mL | MIC ([3]; 37° C., about 16 hours): > 25 µg/mL

COc1ccc2nc(-c3c[nH]c4ccc(Br)cc34)ccc2c1 [Example 412]
MIC ([1]; 16 h, 37° C., about 16 hours): < 7 µg/mL | MIC ([2]; 16 h, 37° C., about 16 hours): > 25 µg/mL | MIC ([3]; 37° C., about 16 hours): > 25 µg/mL
